Assays:
THP-1 cells = experiment: In-vitro cytotoxicity, CCK-8 assay; assay type: cell-based, human; conditions: THP-1 (AML), cell viability after 48 hours
Method: (§1) In-Vitro cytotoxicity assays of GID10-ADC, DM1 and GID10 on HL-60, HCC1806, MDA-MB-231, Raji, RPMI8226, NCI-H929, MM.1S, G-361, THP-1, PL45, AsPC-1, KLM-1, OV90, 4Tl and EL-4 cells. Cell viability was measured after 48 hours using Cell Counting Kit-8 (CCK-8) assay (DOJINDO™, Cat. No. CK04-13), as shown in Table 3. For example, on Day 0, THP-1 cells were seeded at […] cells per well in a 96-well plate and treated with diluted test compounds. The cells were incubated for 48 hours at 37° C. with 5% CO2. On Day 2, 20 μl of CCK-8 was added to each well, followed by incubation for 1-4 hours. Absorbance at 450 nm was then measured to assess cell viability and the impact of the test compounds. […] Cell viability was measured after 48 hours using the Cell Counting Kit-8 (CCK-8) assay (DOJINDO™, Cat. No. CK04-13). IC50 (M) was calculated to determine the efficacy of the antibody, DM1, and ADC on the various cancer cell lines.
(§2) In-Vitro cytotoxicity assays of Dxd-conjugated ADC and free payload Dxd on THP-1, NCI-N87, Capan-1, and KLM-1 cells. Cell viability was measured after 48 hours using Cell Counting Kit-8 (CCK-8) assay (DOJINDO™, Cat. No. CK04-13), as shown in Table 4. […] Absorbance at 450 nm was then measured to assess cell viability and the impact of the test compounds. […] Cell viability was measured after 48 hours using the Cell Counting Kit-8 (CCK-8) assay (DOJINDO™, Cat. No. CK04-13). […]

H460 = experiment: In-vitro cytotoxicity, CCK-8 assay; assay type: cell-based; conditions: H460 (lung cancer); cell viability after 48 hours
KLM-1 = experiment: In-vitro cytotoxicity, CCK-8 assay; assay type: cell-based; conditions: KLM-1 (pancreatic cancer), cell viability after 48 hours
Method: as §1, §2

MM.1S = experiment: In-vitro cytotoxicity, CCK-8 assay; assay type: cell-based; conditions: MM.1S (MM); cell viability after 48 hours
Method: (§3) In-Vitro cytotoxicity assays of GID10-ADC, DM1 and GID10 on HL-60, HCC1806, MDA-MB-231, Raji, RPMI8226, NCI-H929, MM.1S, G-361, THP-1, PL45, AsPC-1, KLM-1, OV90, 4Tl and EL-4 cells. Cell viability was measured after 48 hours using Cell Counting Kit-8 (CCK-8) assay (DOJINDO™, Cat. No. CK04-13), as shown in Table 3. For example, on Day 0, THP-1 cells were seeded at […] cells per well in a 96-well plate and treated with diluted test compounds. The cells were incubated for 48 hours at 37° C. with 5% CO2. On Day 2, 20 μl of CCK-8 was added to each well, followed by incubation for 1-4 hours. Absorbance at 450 nm was then measured to assess cell viability and the impact of the test compounds. For suspension cells, such as HL-60, Raji, RPMI8226, NCI-H929, MM. 1S, and THP-1, 5×10^4 cells per well were inoculated into a 96-well plate. For adherent cells, such as HCC1806, MDA-MB-231, G361, PL45, AsPC-1, KLM-1, OV90, and EL-4, 1.5-5×10^3 cells per well were inoculated based on their doubling time. Adherent cells with a doubling time of less than 24 hours were seeded at 1.5×10^3 cells per well (EL-4), while those with a doubling time of more than 24 hours were seeded at 5×10^3 cells per well. […] DM1 was used as the positive control agent. The cell lines tested included HL-60, HCC1806, MDA-MB-231, Raji, RPMI8226, NCI-H929, MM.1S, G-361, THP-1, PL45, AsPC-1, KLM-1, OV90, 4T1, and EL-4 cells. Cell viability was measured after 48 hours using the Cell Counting Kit-8 (CCK-8) assay (DOJINDO™, Cat. No. CK04-13). IC50 (M) was calculated to determine the efficacy of the antibody, DM1, and ADC on the various cancer cell lines.

G361 = experiment: In-vitro cytotoxicity, CCK-8 assay; assay type: cell-based; conditions: G361 (melanoma); cell viability after 48 hours
Method: as §3

OV90 = experiment: In-vitro cytotoxicity, CCK-8 assay; assay type: cell-based; conditions: OV90 (ovarian cancer); cell viability after 48 hours
Method: as §3

NCI-H929 = experiment: In-vitro cytotoxicity, CCK-8 assay; assay type: cell-based; conditions: NCI-H929 (MM); cell viability after 48 hours
Method: as §3

4T1 = experiment: In-vitro cytotoxicity, CCK-8 assay; assay type: cell-based; conditions: 4T1 (murine breast cancer, stage IV); cell viability after 48 hours
Method: as §3

EL4 = experiment: In-vitro cytotoxicity, CCK-8 assay; assay type: cell-based; conditions: EL4 (murine lymphoma); cell viability after 48 hours
Method: as §3

ASPC1 = experiment: In-vitro cytotoxicity, CCK-8 assay; assay type: cell-based; conditions: ASPC1 (pancreatic cancer); cell viability after 48 hours
Method: as §3

HCC1806 = experiment: In-vitro cytotoxicity, CCK-8 assay; assay type: cell-based; conditions: HCC1806 (TNBC); cell viability after 48 hours
Method: as §3

RPMI8226 = experiment: In-vitro cytotoxicity, CCK-8 assay; assay type: cell-based; conditions: RPMI8226 (MM); cell viability after 48 hours
Method: as §3

MDA-MB-231 = experiment: In-vitro cytotoxicity, CCK-8 assay; assay type: cell-based; conditions: MDA-MB-231 (TNBC); cell viability after 48 hours
Method: as §3

Raji = experiment: In-vitro cytotoxicity, CCK-8 assay; assay type: cell-based; conditions: Raji (DLBCL); cell viability after 48 hours
Method: as §3

Capan-1 = experiment: In-vitro cytotoxicity, CCK-8 assay; assay type: cell-based; conditions: Capan-1 (pancreatic cancer); cell viability after 48 hours
Method: (§4) In-Vitro cytotoxicity assays of Dxd-conjugated ADC and free payload Dxd on THP-1, NCI-N87, Capan-1, and KLM-1 cells. Cell viability was measured after 48 hours using Cell Counting Kit-8 (CCK-8) assay (DOJINDO™, Cat. No. CK04-13), as shown in Table 4. For example, on Day 0, THP-1 cells were seeded at 5×10^4 cells per well in a 96-well plate and treated with diluted test compounds. The cells were incubated for 48 hours at 37° C. with 5% CO2. On Day 2, 15 μl of CCK-8 was added to each well, followed by incubation for 1-4 hours. Absorbance at 450 nm was then measured to assess cell viability and the impact of the test compounds. For suspension cells, such as THP-1, 2-5×10^4 cells per well were inoculated into a 96-well plate. For adherent cells, such as NCI-N87, Capan-1, and KLM-1, 1.5-5×10^3 cells per well were inoculated based on their doubling time. As shown in FIGS. 6A-6C, THP-1, and KLM-1 cells are not killed in the presence of G1D10 antibody alone. […] Linker-Dxd was used as the positive control agent. The cell lines tested included THP-1, NCI-N87, Capan-1, and KLM-1 cells. Cell viability was measured after 48 hours using the Cell Counting Kit-8 (CCK-8) assay (DOJINDO™, Cat. No. CK04-13). IC50 (M) was calculated to determine the efficacy of the Linker-Dxd and the Dxd-conjugated ADC on the various cancer cell lines.

NCI-N87 = experiment: In-vitro cytotoxicity, CCK-8 assay; assay type: cell-based; conditions: NCI-N87 (gastric cancer); cell viability after 48 hours
Method: as §4

[1] = target: cell surface glucose-related protein 78 (GRP78) on cancer cell lines (human) (UniProt P11021); experiment: flow cytometry, OVCAR3 cells; A488-anti-mouse-IgG alone 1.8%
Chain of cell surface glucose-related protein 78 (GRP78) on cancer cell lines (human) (P11021 19-654): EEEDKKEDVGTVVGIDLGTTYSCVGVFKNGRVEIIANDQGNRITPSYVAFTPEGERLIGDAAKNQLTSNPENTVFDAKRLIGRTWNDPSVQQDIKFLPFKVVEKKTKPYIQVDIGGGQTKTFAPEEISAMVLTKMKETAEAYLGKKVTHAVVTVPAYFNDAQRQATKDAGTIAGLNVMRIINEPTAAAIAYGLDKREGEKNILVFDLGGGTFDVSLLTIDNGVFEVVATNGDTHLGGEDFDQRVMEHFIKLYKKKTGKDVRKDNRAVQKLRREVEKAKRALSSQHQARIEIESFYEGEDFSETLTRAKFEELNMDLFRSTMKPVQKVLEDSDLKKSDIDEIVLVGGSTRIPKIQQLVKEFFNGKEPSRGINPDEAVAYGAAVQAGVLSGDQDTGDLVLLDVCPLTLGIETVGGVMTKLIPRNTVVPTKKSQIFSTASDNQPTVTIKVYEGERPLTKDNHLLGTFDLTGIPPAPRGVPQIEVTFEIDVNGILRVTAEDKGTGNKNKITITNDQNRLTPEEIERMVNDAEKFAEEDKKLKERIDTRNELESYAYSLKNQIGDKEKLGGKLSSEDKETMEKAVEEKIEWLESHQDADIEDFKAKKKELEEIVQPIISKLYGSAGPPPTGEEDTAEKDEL

Question: `COc1cc2cc(c1Cl)N(C)C(=O)C[C@H](OC(=O)[C@H](C)N(C)C(=O)CCS)[C@]1(C)O[C@H]1[C@H](C)[C@@H]1C[C@@](O)(NC(=O)O1)[C@H](OC)/C=C/C=C(\C)C2` [DM1, emtansine (DM1)] was tested. Which IC50 (THP-1 cells; Table 3) did it give?
Answer: 4.63 nM

Question: And the IC50 (H460)?
Answer: 1.68 nM

Question: And the IC50 (KLM-1; Table 3)?
Answer: 1.61 nM

Question: And the IC50 (MM.1S)?
Answer: 4.86 nM

Question: And the IC50 (G361)?
Answer: 3.11 nM

Question: And the IC50 (OV90)?
Answer: 55.2 nM

Question: What about the IC50 (NCI-H929) of the same compound?
Answer: 1.13 nM

Question: And the IC50 (4T1)?
Answer: 83 nM

Question: What about the IC50 (EL4) of the same compound?
Answer: 1.52 nM

Question: What about the IC50 (ASPC1) of the same compound?
Answer: 60.2 nM

Question: And the IC50 (HCC1806)?
Answer: 27.2 nM

Question: And the IC50 (RPMI8226)?
Answer: 1.79 nM

Question: And the IC50 (MDA-MB-231)?
Answer: 28.5 nM

Question: And the IC50 (Raji)?
Answer: 4.35 nM

Question: Which IC50 (THP-1 cells; Table 4) does the source give for “N-hydrozysuccinimide (NHS)-VC-para-aminobenzyl carbamate (PABC)-Dxd [Linker-Dxd]” here?
Answer: 61.2 nM

Question: And the IC50 (KLM-1; Table 4)?
Answer: 184 nM

Question: What about the IC50 (Capan-1) of the same compound?
Answer: 296 nM

Question: And the IC50 (NCI-N87)?
Answer: 161 nM

Question: For “anti-GRP78 antibody C38 (eBioscience, Cat. No. 14-9768-82)”, which % (flow cytometry cell surface staining) [1] is on record?
Answer: 2.3%

Source: patent US20260061066A1, “ANTI-GRP78 ANTIBODY, IMMUNOCONJUGATE AND USES THEREOF” (UCT BIOSCIENCE CO., LTD., priority 2024, published 2026)
